In brackets after ≈: the same amount, converted by molar mass. Entries after “also recorded” stand apart in the source; their conditions may differ. Where only a bound is given, the exact number is not on record here.

Data set [1] deals with S. aureus Newbould, S. aureus CMRSA-10, S. epidermidis ATCC 12228. As to the kind of experiment: Kill kinetics. Type of data set: cell-based, staphylococci. How it is done: Time-kill kinetics studies were performed to define the bactericidal effect of PC206. S. aureus Newbould, CMRSA-10, or S. epidermidis ATCC 12228 were inoculated at a density of approximately 5 × 10^5 CFU/mL in CAMHB in the absence or presence of PC206 and were incubated with agitation (225 rpm) for 24 h at 35 °C. Right before inoculation and 0.5, 1, 2, 4, 8 and 24 h thereafter, bacterial cultures were sampled, serially diluted, and plated on tryptic soya agar (TSA) plates that were incubated at 35 °C for 24 h to determine viable counts with a detection limit of 2 log10 CFU/mL.

Data set [2] relates to Staphylococcus aureus CMRSA-10. As to the kind of experiment: Broth microdilution MIC. Format: cell-based. Conditions: CMRSA10, S. aureus CMRSA-10, read-out: Broth Microdilution MIC. An excerpt:
(§1) Reference strains for this study (S. aureus ATCC 29213, ATCC 29740 [bovine mastitis strain Newbould], S. epidermidis ATCC 12228, E. coli ATCC 35695, E. faecalis ATCC 29212) were obtained from the American Type Culture Collection (ATCC, Rockville, MD). S. aureus strains CMRSA-10 and CMRSA-2 were obtained from the Laboratoire de santé publique du Québec (LSPQ, Sainte-Anne-de-Bellevue, QC, Canada) and are Canadian CA-MRSA USA-300 and HA-MRSA USA-100 clones, respectively. The strain E. coli imp4213 (lptD), used as a control in MIC assays, is a derivative of E. coli ATCC 35695 (E. coli MC4100) with an increased membrane permeability. […] Other MRSA strains used in this study are clinical isolates of human origin obtained from the microbiology laboratory of the Centre Hospitalier Universitaire de Sherbrooke (CHUS, Sherbrooke, QC, Canada). Bovine mastitis strains (S. aureus, S. chromogenes, S. haemolyticus, S. hominis, S. simulans) were obtained from the Canadian Bovine Mastitis and Milk Quality Research Network (CBRQMN, St-Hyacinthe, QC, Canada). Among these strains, S. aureus 2117 is a high producer of biofilm and was used in the biofilm-eradication assay. S. epidermidis isolates were provided by Centre de Recherche en Infectiologie (CRI) de Québec (Québec, QC, Canada).

In data set [3] the test system is Staphylococcus aureus CMRSA-2. The data set can be described thus: Broth microdilution MIC. Format: cell-based. To be noted: CMRSA2, S. aureus CMRSA-2, read-out: Broth Microdilution MIC.
Excerpt: as §1

For data set [4], the system named is Staphylococcus epidermidis ATCC 12228. The data set can be described thus: Broth microdilution MIC. To be noted: ATCC12228, read-out: Broth Microdilution MIC.
Data set [5] is described as follows: Initial safety assessment in cows. Format: in vivo. To be noted: single intramammary infusion of 100, 250 or 500 mg. How it is done:
The innocuity of PC206 was evaluated in cows, as previously described for other test substances. Following morning milking, each of the four mammary gland quarters […] was infused with various doses of PC206 (100, 250, 500 mg) or saline as a negative control. […] Cows were milked using an individual quarter-milking unit in order to measure individual quarter-milk production. PC206 concentration in milk was also measured; milk samples were diluted with an equal volume of isopropanol and washed 3 times with hexane. PC206 was extracted using ethyl acetate, filtered on Na2SO4, and evaporated. The dried samples were diluted 80:20 in ACN:H2O containing an internal standard. The content of PC206 was determined using single-ion monitoring (SIMS) on UPLC-MS.

Data set [6] concerns S. chromogenes. The data set can be described thus: Susceptibility of isolate panel (MIC50, MIC90, range). Format: cell-based.
Excerpt: as §1
(§2) The antibacterial activity of the most promising compound, PC206, was also evaluated against larger groups of clinical isolates of human and animal origin. The MIC50 and MIC90 values represented the concentrations of drug required to inhibit the growth of 50% and 90% of the bacterial strains tested, respectively.

Data set [7] relates to S. simulans. The data set is described as above. Type of data set: cell-based.
Excerpt: as §1, §2

In data set [8] the test system is S. epidermidis. Described as above. Conditions: S. epidermidis, 10 isolates. Format: cell-based.
Excerpt: as §1, §2

In data set [9] the test system is Staphylococcus aureus ATCC 29213. The data set can be described thus: Broth microdilution MIC. Conditions: ATCC29213, read-out: Broth Microdilution MIC.
Data set [10] can be described thus: MTT assay. Type of data set: cell-based. To be noted: human, HepG2 cells.
Data set [11] relates to guanine riboswitch-lacZ fusion construct (xpt-lacZ). As to the kind of experiment: Riboswitch regulation assay (lacZ-gene reporter). Format: cell-based, B. subtilis. To be noted: 64 µg/mL. The text has this: The novel pyrimidine compounds, especially PC206, display specificity and potency against some staphylococci but not the other bacterial genus (Table 1 and Table 2). Because they are structurally derived from PC1 and PC2, these novel antibiotic candidates are expected to have the same mode of action. […] To verify this hypothesis, a strain of B. subtilis with a guanine riboswitch-lacZ fusion construct (named xpt-lacZ) integrated in its chromosome was exposed to these new antimicrobials. […] Therefore, it is an adequate reporter species. The metabolization of substrate ONPG into colored ONP was normalized by the bacterial suspension absorbance at 600 nm (Miller units) and relativized to the untreated condition.
β-galactosidase gene expression in the presence of the new pyrimidine analogs was studied, using an xpt-lacZ transcriptional fusion construct integrated in the genome of B. subtilis as previously described. Briefly, cultures were grown for 5 h at 35 °C in CAMHB, from an initial optical density of 0.05 at 600 nm (OD600), and then diluted 1:20 and in the presence of different concentrations of the compounds tested. Cultures were centrifuged for 10 min at 13,100 rpm, the supernatant was discarded, and pellets were suspended in a Z-buffer (NaH2PO4 40 mM, Na2HPO4 60 mM, MgSO4 1 mM, KCl 10 mM). Cultures OD600 were measured, and bacteria were then lysed with lysozyme (1 mg/mL) and β-mercaptoethanol 50 mM for 30 min. Lysates were centrifuged for 10 min at 13,100 rpm, and supernatants were incubated for 5 min at 30 °C with the substrate orthonitrophenyl-β-galactoside (ONPG; Sigma Aldrich). Reactions were stopped with Na2CO3 1M, supernatants OD420 were measured, and Miller units were calculated. A decrease in β-galactosidase activity indicated binding of the test compound to the riboswitch. Guanine and oxacillin were used as […] controls, respectively. The formula to measure Miller units is as follows: Millerunits=1000×OD420/t·v·OD600
Here, t represents the time of incubation with ONPG, and v represents the volume of the reaction.

Data set [12] has as its system Escherichia coli ΔlptD4213. As to the kind of experiment: microbe, parasite or virus in culture. Format: cell-based. To be noted: read-out: Broth Microdilution MIC.
Excerpt: as §1

`CCCCCCNc1cc(N)nc(N)n1` [PC206]: the “Reduction of bacterial viable counts at 24 h compared to the initial inoculum” value in data set [1] (4× MIC) is 0.5–1.5 log10 CFU/mL. Further, in data set [1] (up to 4× MIC, 24 h), the “Qualification from kill kinetics” value is “bacteriostatic agent”. Further, the MIC is 4 µg/mL (≈ 19.1 µM) in [2]; 8 µg/mL (≈ 38.2 µM) in data set [3]; 4 µg/mL (≈ 19.1 µM) in [4]; 8 µg/mL (≈ 38.2 µM) in data set [9]; more than 128 µg/mL in data set [12]. Besides, the Body temperature entry in data set [5] was “around 38 °C”. Also, the “Redness or swelling of quarters at milking” value in data set [5] was “Neither redness nor swelling was observed”. For the same molecule, in [5] (69 h), the “Somatic cell counts and quarter-milk production” value was “remained unaffected; also recorded: did not impact somatic cells count”. Besides, the MIC90 stood at 128 µg/mL (≈ 612 µM) in data set [6]; 128 µg/mL (≈ 612 µM) in [7] (Staphylococcus simulans); 8 µg/mL (≈ 38.2 µM) in data set [8] (Staphylococcus epidermidis, read-out: MIC90). The “MIC Range” value fell in the range of 16 to 128 µg/mL in data set [6] (S. chromogenes, 5 isolates); 64 to 128 µg/mL in [7] (S. simulans, 5 isolates); 2 to 16 µg/mL in data set [8]. In addition, the MIC50 in data set [6] (S. chromogenes, 5 isolates, read-out: MIC50) stood at 32 µg/mL (≈ 153 µM); in data set [7] (Staphylococcus simulans, S. simulans, 5 isolates, read-out: MIC50), 64 µg/mL (≈ 306 µM); in data set [8] (Staphylococcus epidermidis, read-out: MIC50), 4 µg/mL (≈ 19.1 µM). The molecule also registered a CC50 at 24 h in [10] of 160 ± 31 µM. Further, in [11], the “Miller units remaining, relative to the untreated condition” value was found to be 35%.
